Marks after values point to notes of the source that are not given here. Square brackets hold non-standard residues; d marks the D form. Peptide text beside a SMILES is read from it. * marks the point of attachment. dPhe(4-NHCONH2) = NC(=O)Nc1ccc(C[C@@H](N)C(=O)O)cc1; Dihydroorotyl(S) = O=C1C[C@@H](C(=O)*)NC(=O)N1; dPhe(4-Cl) = N[C@H](Cc1ccc(Cl)cc1)C(=O)O; Phe(4-NH2) = Nc1ccc(C[C@H](N)C(=O)O)cc1; d2Nal = N[C@H](Cc1ccc2ccccc2c1)C(=O)O; Lys(iPr) = CC(C)NCCCC[C@H](N)C(=O)O; d3Pal = N[C@H](Cc1cccnc1)C(=O)O
Assay: CS21 safety: treatment-emergent adverse events (MedDRA SOC/PT), crude incidence, also by subgroup
Format: in vivo
Description: The safety variables for this study were assessed on the following: the frequency and severity of adverse events (AEs); the presence of clinically significant changes in laboratory parameters (clinical chemistry, hematology and urinalysis); changes in electrocardiograms (ECGs) and vital signs; changes detected by physical examination; and body weight.
An AE was therefore any unfavorable or unintended sign (including an abnormal laboratory finding), symptom or disease temporally associated with the use of the product, whether or not related to the IMP.
An adverse drug reaction (ADR) was defined as an AE evaluated by the investigator as being probably or possibly related to treatment with the IMP.
AEs were graded according to the National Cancer Institute (NCI) Common Terminology Criteria for Adverse Events (CTCAE). In accordance with the CTCAE criteria, AEs were rated on a five-point scale corresponding to mild, moderate, severe, life-threatening or disabling and death. For those AEs not described in the CTCAE, a separate five-point rating scale was used for rating of the intensity of AEs as follows below:
Safety parameters were evaluated for all patients included in the ITT analysis set, comprising all 610 randomized patients who received at least one dose of study medication. All safety tables include four columns: the three treatment groups described separately, and the pooled degarelix group.
Adverse events were regarded as ‘treatment-emergent’ if they occurred in the time interval from initial dosing to end-of-study. Adverse events were considered ‘pre-treatment’ if they occurred between screening and the initial injections of IMP. As described above, all AEs were classified according to MedDRA (version 10.0) system organ class (SOC), sorted alphabetically, and by preferred term (PT), in decreasing frequency of occurrence. Treatment-emergent AEs were expressed in terms of intensity (using NCI CTCAE) and relationship to study drug.
Using the results from the summary of clinical efficacy (SCE) and summary of clinical safety (SCS) findings, different patient subgroups were analyzed. Subgroup distinguishers included race (white, black, and other), age (<65 years, […], and >75 years), weight (<70 kg, ≥70−<90 kg, and ≥90 kg), body mass index (BMI) (≤20, >20 to 30, and >30 kg/m^2)), region (North-America, Western Europe, Central and Eastern Europe and Other), and stage of prostate cancer (e.g., localized, locally advanced, and metastatic).

[1] = PCA = Localised, pooled degarelix
[2] = PCA = Locally advanced, pooled degarelix
[3] = PCA = Metastatic, pooled degarelix
[4] = Weight 70-<90 kg, pooled degarelix
[5] = Weight <70 kg, pooled degarelix
[6] = Weight >=90 kg, pooled degarelix
[7] = degarelix 240/80 mg, listed as degarelix

SMILES: CC(=O)N[C@H](Cc1ccc2ccccc2c1)C(=O)N[C@H](Cc1ccc(Cl)cc1)C(=O)N[C@H](Cc1cccnc1)C(=O)N[C@@H](CO)C(=O)N[C@@H](Cc1ccc(NC(=O)[C@@H]2CC(=O)NC(=O)N2)cc1)C(=O)N[C@H](Cc1ccc(NC(N)=O)cc1)C(=O)N[C@@H](CC(C)C)C(=O)N[C@@H](CCCCNC(C)C)C(=O)N1CCC[C@H]1C(=O)N[C@H](C)C(N)=O [Degarelix, D-Alaninamide, N-acetyl-3-(2-naphthalenyl)-D-alanyl-4-chloro-D-phenylalanyl-3-(3-pyridinyl)-D-alanyl-L-seryl-4-[[[(4S)-hexahydro-2,6-dioxo-4-pyrimidinyl]carbonyl]amino]-L phenylalanyl-4-[(aminocarbonyl)amino]-D-phenylalanyl-L leucyl-N6-(1-methylethyl)-L-lysyl-L-prolyl] (Ac-[d2Nal][dPhe(4-Cl)][d3Pal]S[Phe(4-NH2)](Dihydroorotyl(S))[dPhe(4-NHCONH2)]L[Lys(iPr)]P[dA]-NH2)
- Gastrointestinal disorders, % of patients (Age <65, pooled degarelix): (9%)*
- Infections and infestations, % of patients (Age <65, pooled degarelix): (16%)
- Musculoskeletal and connective tissue disorders, % of patients (Age <65, pooled degarelix): (9%)**
- Renal and urinary disorders, % of patients (Age <65, pooled degarelix): (10%)*
- Subjects with adverse events, % (Age <65, pooled degarelix): (75%)
- Urinary retention, % of patients (Age <65, pooled degarelix): (1%)*
- Depression, % of patients [1]: (<1%)*
- Erectile dysfunction, % of patients [1]: (<1%)*
- Gynaecomastia, % of patients [1]: (<1%)
- Infections and infestations, % of patients [1]: (17%)
- Musculoskeletal and connective tissue disorders, % of patients [1]: (16%)
- Neoplasms benign, malignant and unspecified, % of patients [1]: (3%)
- Oedema peripheral, % of patients [1]: (2%)*
- Psychiatric disorders, % of patients [1]: (9%)
- Reproductive system and breast disorders, % of patients [1]: (4%)
- Subjects with adverse events, % [1]: (81%)
- Upper respiratory tract infection, % of patients [1]: (3%)
- Urinary tract infection, % of patients [1]: (2%)*
- Arthralgia, % of patients [2]: (2%)**
- Back pain, % of patients [2]: ( 5%)
- Cardiac disorders, % of patients [2]: (3%)
- Diarrhoea, % of patients [2]: (<1%)*
- Dyspnoea, N patients [2]: 0
- Fall, % of patients [2]: (<1%)
- Gastrointestinal disorders, % of patients [2]: (13%)
- Infections and infestations, % of patients [2]: (13%)
- Injury, poisoning and procedural complications, % of patients [2]: (2%)**
- Muscle strain, % of patients [2]: (<1%)
- Musculoskeletal and connective tissue disorders, % of patients [2]: (10%)
- Respiratory, thoracic and mediastinal disorders, % of patients [2]: ( 7%)
- Subjects with adverse events, % [2]: (74%)
- Urinary tract infection, % of patients [2]: (<1%)**
- Arthralgia, % of patients [3]: ( 5%)
- Back pain, % of patients [3]: ( 5%)
- Gastrointestinal disorders, % of patients [3]: (15%)
- Musculoskeletal and connective tissue disorders, % of patients [3]: (21%)
- Pain in extremity, % of patients [3]: ( 1%)
- Subjects with adverse events, % [3]: (81%)
- Erectile dysfunction, % of patients (Race = Other, pooled degarelix): (2%)*
- Infections and infestations, % of patients (Race = Other, pooled degarelix): (33%)
- Reproductive system and breast disorders, % of patients (Race = Other, pooled degarelix): (10%)
- Subjects with adverse events, % (Race = Other, pooled degarelix): (95%)
- Urinary tract infection, % of patients (Race = Other, pooled degarelix): (5%)*
- Cardiac disorders, % of patients (Race = White, pooled degarelix): (10%)
- Chest pain, % of patients (Race = White, pooled degarelix): (<1%)*
- Cystitis noninfective, N patients (Race = White, pooled degarelix): 0
- Deep vein thrombosis, N patients (Race = White, pooled degarelix): 0
- Infections and infestations, % of patients (Race = White, pooled degarelix): (19%)
- Investigations, % of patients (Race = White, pooled degarelix): (26%)
- Musculoskeletal and connective tissue disorders, % of patients (Race = White, pooled degarelix): (15%)**
- Musculoskeletal stiffness, N patients (Race = White, pooled degarelix): 0
- Myocardial ischaemia, % of patients (Race = White, pooled degarelix): (<1%)*
- Oedema peripheral, % of patients (Race = White, pooled degarelix): (1%)*
- Orthostatic hypotension, N patients (Race = White, pooled degarelix): 0
- Renal and urinary disorders, % of patients (Race = White, pooled degarelix): (14%)
- Subjects with adverse events, % (Race = White, pooled degarelix): (79%)
- Upper respiratory tract infection, % of patients (Race = White, pooled degarelix): (<1%)*
- Urinary retention, % of patients (Race = White, pooled degarelix): ( 1%)*
- Vascular disorders, % of patients (Race = White, pooled degarelix): (31%)
- Cardiac disorders, % of patients [4]: ( 5%)*
- Erectile dysfunction, % of patients [4]: (<1%)*
- Nervous system disorders, % of patients [4]: (12%)
- Reproductive system and breast disorders, % of patients [4]: ( 5%)
- Subjects with adverse events, % [4]: (81%)
- Arthralgia, % of patients [5]: ( 3%)**
- Musculoskeletal and connective tissue disorders, % of patients [5]: (17%)*
- Pelvic pain, N patients [5]: 0
- Reproductive system and breast disorders, % of patients [5]: (4%)*
- Subjects with adverse events, % [5]: (78%)
- Arthralgia, % of patients [6]: ( 5%)
- Back pain, % of patients [6]: ( 5%)*
- Infections and infestations, % of patients [6]: (26%)
- Musculoskeletal and connective tissue disorders, % of patients [6]: (15%)*
- Neoplasms benign, malignant and unspecified, % of patients [6]: (1%)*
- Subjects with adverse events, % [6]: (84%)
- Urinary tract infection, % of patients [6]: ( 3%)*
- ADRs, % of patients (degarelix 240/80 mg): 57%
- ADRs, E events (degarelix 240/80 mg): 459
- ADRs, N patients (degarelix 240/80 mg): 118
- AEs leading to discontinuation, % of patients (degarelix 240/80 mg): 7%
- AEs leading to discontinuation, E events (degarelix 240/80 mg): 15
- AEs leading to discontinuation, N patients (degarelix 240/80 mg): 15
- Alanine aminotransferase increased, % of patients (degarelix 240/80 mg): (10%)
- All AEs, E = number of adverse events (degarelix 240/80 mg): 937
- All AEs, N = number of patients (degarelix 240/80 mg): 163
- Arthralgia, % of patients (degarelix 240/80 mg): ( 5%)
- Aspartate aminotransferase increased, % of patients (degarelix 240/80 mg): ( 5%)
- Back pain, % of patients (degarelix 240/80 mg): ( 6%)
- Blood & lymphatic system disorders, % of patients (degarelix 240/80 mg): ( 2%)
- Cardiac disorders, % of patients (degarelix 240/80 mg): ( 8%)
- Chills, % of patients (degarelix 240/80 mg): ( 5%)
- Constipation, % of patients (degarelix 240/80 mg): ( 5%)
- Deaths (Grade 5), % of patients (degarelix 240/80 mg): 2%
- Deaths (Grade 5), E events (degarelix 240/80 mg): 5
- Deaths (Grade 5), N patients (degarelix 240/80 mg): 5
- Ear & labyrinth disorders, % of patients (degarelix 240/80 mg): ( 3%)
- Endocrine disorders, % of patients (degarelix 240/80 mg): (<1%)
- Eye disorders, % of patients (degarelix 240/80 mg): ( 3%)
- Fatigue, % of patients (degarelix 240/80 mg): ( 3%)
- Gastrointestinal disorders, % of patients (degarelix 240/80 mg): (18%)
- General disorders & administration site conditions, % of patients (degarelix 240/80 mg): (44%)
- Hepatobiliary disorders, % of patients (degarelix 240/80 mg): (<1%)
- Hot flush, % of patients (degarelix 240/80 mg): (26%)
- Hypercholesterolaemia, % of patients (degarelix 240/80 mg): ( 3%)
- Hypertension, % of patients (degarelix 240/80 mg): ( 6%)
- Immune system disorders, % of patients (degarelix 240/80 mg): (<1%)
- Infections & infestations, % of patients (degarelix 240/80 mg): (22%)
- Injection site erythema, % of patients (degarelix 240/80 mg): (17%)
- Injection site induration, % of patients (degarelix 240/80 mg): ( 4%)
- Injection site nodule, % of patients (degarelix 240/80 mg): ( 3%)
- Injection site pain, % of patients (degarelix 240/80 mg): (28%)
- Injection site swelling, % of patients (degarelix 240/80 mg): ( 6%)
- Injury, poisoning & procedural complications, % of patients (degarelix 240/80 mg): ( 5%)
- Investigations, % of patients (degarelix 240/80 mg): (26%)
- Metabolism & nutrition disorders, % of patients (degarelix 240/80 mg): ( 7%)
- Musculoskeletal & connective tissue disorders, % of patients (degarelix 240/80 mg): (15%)
- Nausea, % of patients (degarelix 240/80 mg): ( 4%)
- Neoplasms benign, malignant & unspecified, % of patients (degarelix 240/80 mg): ( 5%)
- Nervous system disorders, % of patients (degarelix 240/80 mg): (12%)
- Psychiatric disorders, % of patients (degarelix 240/80 mg): ( 8%)
- Renal & urinary disorders, % of patients (degarelix 240/80 mg): (14%)
- Reproductive system & breast disorders, % of patients (degarelix 240/80 mg): ( 4%)
- Respiratory, thoracic & mediastinal disorders, % of patients (degarelix 240/80 mg): (12%)
- Serious AEs, % of patients (degarelix 240/80 mg): 10%
- Serious AEs, E events (degarelix 240/80 mg): 26
- Serious AEs, N patients (degarelix 240/80 mg): 21
- Skin & subcutaneous tissue disorders, % of patients (degarelix 240/80 mg): ( 9%)
- Urinary tract infection, % of patients (degarelix 240/80 mg): ( 5%)
- Vascular disorders, % of patients (degarelix 240/80 mg): (34%)
- Weight increased, % of patients (degarelix 240/80 mg): ( 9%)
- Injection site adverse events, % of subjects (degarelix 240/80 mg s.c., leuprolide 7.5 mg i.m.): 35%
- ADRs excluding injection site reactions, % of patients (degarelix 240/80 mg, leuprolide 7.5 mg): 43%
- Arthralgia, % of patients [7]: 5%
- Back pain, % of patients [7]: 6%
- Chills, % of patients [7]: 5%
- Constipation, % of patients [7]: 5%
- Fatigue, % of patients [7]: 3%
- Hot flush, % of patients [7]: 26%
- Hypertension, % of patients [7]: 6%
- Injection site erythema, % of patients [7]: 17%
- Injection site induration, % of patients [7]: 4%
- Injection site nodule, % of patients [7]: 3%
- Injection site pain, % of patients [7]: 28%
- Injection site swelling, % of patients [7]: 6%
- Musculoskeletal & connective tissue disorders, % of patients [7]: 15%
- Treatment-emergent adverse events (all AEs), % of patients [7]: 79%
- Urinary tract infection, % of patients [7]: 5%
- Weight increased, % of patients [7]: 9%
- ADRs excluding injection site reactions, % of patients (degarelix 240/160 mg): 44%
- ADRs, % of patients (degarelix 240/160 mg): 59%
- ADRs, E events (degarelix 240/160 mg): 463
- ADRs, N patients (degarelix 240/160 mg): 120
